Reference: US20250122218A1, “MODULATORS OF CYSTIC FIBROSIS TRANSMEMBRANE CONDUCTANCE REGULATOR” (Vertex Pharmaceuticals Incorporated, priority 2022, published 2025)

The molecules below were run against T1, CFTR in F508del/MF-HBE cells (Homo sapiens, UniProt P13569, DEL508-508) (assay: Ussing chamber assay of CFTR-mediated short-circuit currents (identification of potentiator compounds)). Settings: potentiator incubated 18-24 hours at 37° C. in combination with 10 μM corrector, in the presence of 20% human serum, CFTR-mediated ISC.
T1 construct: human bronchial epithelial (HBE) cells derived from CF subjects heterozygous for F508del and a minimal function CFTR mutation; endogenous in cells; host or cells: primary human bronchial epithelial cells from CF subjects (F508del/MF-HBE)
Type: cell-based
How it was run: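 F508del/MF-HBE cultures were preincubated 18-24 h at 37° C with potentiator plus 10 μM of a fixed corrector compound in 20% human serum; compounds were kept present during measurement. ISC was recorded under voltage clamp (0 mV, 37° C, amiloride apical) and taken as the 20 μM forskolin peak minus the current after inhibitor cocktail.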

T1 sequence (P13569 with tags, fused parts or gaps DEL508-508): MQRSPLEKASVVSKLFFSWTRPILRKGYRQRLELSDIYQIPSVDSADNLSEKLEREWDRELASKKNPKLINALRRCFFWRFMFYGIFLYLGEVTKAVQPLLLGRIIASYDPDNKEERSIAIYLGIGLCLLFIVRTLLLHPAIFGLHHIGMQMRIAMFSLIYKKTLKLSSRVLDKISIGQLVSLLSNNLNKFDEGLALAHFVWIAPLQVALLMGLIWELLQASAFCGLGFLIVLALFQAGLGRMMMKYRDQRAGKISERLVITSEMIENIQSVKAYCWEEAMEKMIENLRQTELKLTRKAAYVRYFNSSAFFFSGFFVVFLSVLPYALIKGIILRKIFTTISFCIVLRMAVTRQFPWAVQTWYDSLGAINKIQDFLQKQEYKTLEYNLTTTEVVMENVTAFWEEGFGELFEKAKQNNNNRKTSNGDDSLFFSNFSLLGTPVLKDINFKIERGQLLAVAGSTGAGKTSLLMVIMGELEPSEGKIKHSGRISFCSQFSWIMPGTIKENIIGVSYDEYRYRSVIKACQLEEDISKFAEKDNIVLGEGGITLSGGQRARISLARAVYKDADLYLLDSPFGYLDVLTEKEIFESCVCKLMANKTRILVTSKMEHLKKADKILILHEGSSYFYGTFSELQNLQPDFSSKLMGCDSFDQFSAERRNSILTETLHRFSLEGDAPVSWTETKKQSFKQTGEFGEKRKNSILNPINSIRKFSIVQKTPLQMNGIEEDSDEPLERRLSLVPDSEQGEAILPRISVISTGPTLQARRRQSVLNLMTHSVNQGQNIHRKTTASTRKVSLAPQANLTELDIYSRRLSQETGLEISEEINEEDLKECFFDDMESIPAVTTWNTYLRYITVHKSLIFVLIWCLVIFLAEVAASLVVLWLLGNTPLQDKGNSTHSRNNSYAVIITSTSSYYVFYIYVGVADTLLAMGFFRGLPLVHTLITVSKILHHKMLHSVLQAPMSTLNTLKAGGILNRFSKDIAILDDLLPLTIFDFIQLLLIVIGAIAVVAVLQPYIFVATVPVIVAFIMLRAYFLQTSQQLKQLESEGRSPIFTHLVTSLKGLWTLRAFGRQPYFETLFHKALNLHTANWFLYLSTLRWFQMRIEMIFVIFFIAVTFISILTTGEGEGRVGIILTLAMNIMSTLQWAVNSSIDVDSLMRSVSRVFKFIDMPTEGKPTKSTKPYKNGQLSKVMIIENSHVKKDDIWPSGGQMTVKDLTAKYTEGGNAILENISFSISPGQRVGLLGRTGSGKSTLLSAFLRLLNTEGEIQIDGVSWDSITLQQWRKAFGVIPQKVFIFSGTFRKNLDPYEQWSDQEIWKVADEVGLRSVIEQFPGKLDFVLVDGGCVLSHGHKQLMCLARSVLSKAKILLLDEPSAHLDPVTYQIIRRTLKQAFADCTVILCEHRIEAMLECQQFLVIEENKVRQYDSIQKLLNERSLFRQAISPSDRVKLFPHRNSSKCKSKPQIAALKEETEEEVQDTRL

| SMILES | EC50 [nM] |
| --- | --- |
| Nc1cc(C(F)(F)F)c2nc1-c1nnc(o1)[C@@](O)(C(F)(F)F)CCCCCN(c1cccnc1)C2=O [Compound 126, (6R)-17-amino-6-hydroxy-12-(3-pyridyl)-6,15-bis (trifluoromethyl)-19-oxa-3,4,12,18-tetrazatricyclo [12.3.1.12,5] nonadeca-1(18),2,4,14,1 6-pentaen-13-one] | > 1000 |
| Nc1cc(C(F)(F)F)c2nc1-c1nnc(o1)[C@@](O)(C(F)(F)F)CCCCCN(CC1CCOCC1)C2=O [Compound 132, (6R)-17-amino-6-hydroxy-12-(tetrahydropyran-4-ylmethyl)-6,15-bis (trifluoromethyl)-19-oxa-3,4,12,18-tetrazatricyclo [12.3.1.12,5] nonadeca-1(18),2,4,14,1 6-pentaen-13-one] | < 500 |
| Cc1ccc(CN2CCCCC[C@](O)(C(F)(F)F)C3=NN=C(O3)c3nc(c(C(F)(F)F)cc3N)C2=O)cc1 [Compound 134, (6R)-17-amino-6-hydroxy-12-(p-tolylmethyl)-6,15-bis (trifluoromethyl)-19-oxa-3,4,12,18-tetrazatricyclo [12.3.1.12,5] nonadeca-1(18),2,4,14,1 6-pentaen-13-one] | < 500 |
| Nc1cc(C(F)(F)F)c2nc1-c1nnc(o1)[C@@](O)(C(F)(F)F)CCCCCN(Cc1ccc(C(F)(F)F)cc1)C2=O [Compound 135, (6R)-17-amino-6-hydroxy-6,15-bis (trifluoromethyl)-12-[[4-(trifluoromethyl)phenyl]methyl]-19-oxa-3,4,12,18-tetrazatricyclo [12.3.1.12,5] nonadeca-1(18),2,4,14,1 6-pentaen-13-one] | < 500 |
| Nc1cc(C(F)(F)F)c2nc1-c1nnc(o1)[C@@](O)(C(F)(F)F)CCCCCN(Cc1ccc(F)cc1)C2=O [Compound 136, (6R)-17-amino-12-[(4-fluorophenyl)methyl]-6-hydroxy-6,15-bis (trifluorom ethyl)-19-oxa-3,4,12,18-tetrazatricyclo [12.3.1.12,5] nonadeca-1(18),2,4,14,1 6-pentaen-13-one] | < 500 |
| Nc1cc(C(F)(F)F)c2nc1-c1nnc(o1)[C@@](O)(C(F)(F)F)CCCCCN(CCc1ccccc1)C2=O [Compound 137, (6R)-17-amino-6-hydroxy-12-(2-phenylethyl)-6,15-bis (trifluoromethyl)-19-oxa-3,4,12,18-tetrazatricyclo [12.3.1.12,5] nonadeca-1(18),2,4,14,1 6-pentaen-13-one] | < 500 |
| COc1cccc(CN2CCCCC[C@](O)(C(F)(F)F)C3=NN=C(O3)c3nc(c(C(F)(F)F)cc3N)C2=O)c1 [Compound 138, (6R)-17-amino-6-hydroxy-12-[(3-methoxyphenyl)methyl]-6,15-bis (trifluorom ethyl)-19-oxa-3,4,12,18-tetrazatricyclo [12.3.1.12,5] nonadeca-1(18),2,4,14,1 6-pentaen-13-one] | < 500 |
| CC(C)c1cccc(CN2CCCCC[C@](O)(C(F)(F)F)C3=NN=C(O3)c3nc(c(C(F)(F)F)cc3N)C2=O)c1 [Compound 139, (6R)-17-amino-6-hydroxy-12-[(3-isopropylphenyl)methyl]-6,15-bis (trifluoromethyl)-19-oxa-3,4,12,18-tetrazatricyclo [12.3.1.12,5] nonadeca-1(18),2,4,14,1 6-pentaen-13-one] | < 500 |
| Cc1cccnc1CN1CCCCC[C@](O)(C(F)(F)F)C2=NN=C(O2)c2nc(c(C(F)(F)F)cc2N)C1=O [Compound 140, (6R)-17-amino-6-hydroxy-12-[(3-methyl-2-pyridyl)methyl]-6,15-bis (trifluoromethyl)-19-oxa-3,4,12,18-tetrazatricyclo [12.3.1.12,5] nonadeca-1(18),2,4,14,1 6-pentaen-13-one] | < 500 |
| Nc1cc(C(F)(F)F)c2nc1-c1nnc(o1)[C@@](O)(C(F)(F)F)CCCCCN(Cc1ccccc1OC(F)(F)F)C2=O [Compound 141, (6R)-17-amino-6-hydroxy-12-[[2-(trifluoromethoxy)phenyl]methyl]-6,15-bis (trifluoromethyl)-19-oxa-3,4,12,18-tetrazatricyclo [12.3.1.12,5] nonadeca-1(18),2,4,14,1 6-pentaen-13-one] | < 500 |
| Nc1cc(C(F)(F)F)c2nc1-c1nnc(o1)[C@@](O)(C(F)(F)F)CCCCCN(Cc1cccc(OC(F)(F)F)c1)C2=O [Compound 142, (6R)-17-amino-6-hydroxy-12-[[3-(trifluoromethoxy)phenyl]methyl]-6,15-bis (trifluoromethyl)-19-oxa-3,4,12,18-tetrazatricyclo [12.3.1.12,5] nonadeca-1(18),2,4,14,1 6-pentaen-13-one] | < 500 |
| CC(C)Oc1ccc(CN2CCCCC[C@](O)(C(F)(F)F)C3=NN=C(O3)c3nc(c(C(F)(F)F)cc3N)C2=O)cc1 [Compound 143, (6R)-17-amino-6-hydroxy-12-[(4-isopropoxyphenyl)methyl]-6,15-bis (trifluoromethyl)-19-oxa-3,4,12,18-tetrazatricyclo [12.3.1.12,5] nonadeca-1(18),2,4,14,1 6-pentaen-13-one] | < 500 |
| Nc1cc(C(F)(F)F)c2nc1-c1nnc(o1)[C@@](O)(C(F)(F)F)CCCCCN(Cc1ccc(Cl)cc1)C2=O [Compound 144, (6R)-17-amino-12-[(4-chlorophenyl)methyl]-6-hydroxy-6,15-bis (trifluoromethyl)-19-oxa-3,4,12,18-tetrazatricyclo [12.3.1.12,5] nonadeca-1(18),2,4,14,1 6-pentaen-13-one] | < 500 |
| Nc1cc(C(F)(F)F)c2nc1-c1nnc(o1)[C@@](O)(C(F)(F)F)CCCCCN(Cc1ccc(F)cc1F)C2=O [Compound 145, (6R)-17-amino-12-[(2,4-difluorophenyl)methyl]-6-hydroxy-6,15-bis (trifluoromethyl)-19-oxa-3,4,12,18-tetrazatricyclo [12.3.1.12,5] nonadeca-1(18),2,4,14,1 6-pentaen-13-one] | < 500 |
| Nc1cc(C(F)(F)F)c2nc1-c1nnc(o1)[C@@](O)(C(F)(F)F)CCCCCN(Cc1ccc(F)c(F)c1)C2=O [Compound 146, (6R)-17-amino-12-[(3,4-difluorophenyl)methyl]-6-hydroxy-6,15-bis (trifluoromethyl)-19-oxa-3,4,12,18-tetrazatricyclo [12.3.1.12,5] nonadeca-1(18),2,4,14,1 6-pentaen-13-one] | < 500 |
| Nc1cc(C(F)(F)F)c2nc1-c1nnc(o1)[C@@](O)(C(F)(F)F)CCCCCN(Cc1ccc(C(F)(F)F)nc1)C2=O [Compound 147, (6R)-17-amino-6-hydroxy-6,15-bis (trifluoromethyl)-12-[[6-(trifluoromethyl)-3-pyridyl]methyl]-19-oxa-3,4,12,18-tetrazatricyclo [12.3.1.12,5] nonadeca-1(18),2,4,14,1 6-pentaen-13-one] | < 500 |

Next, values leading:

| EC50 [nM] | SMILES |
| --- | --- |
| < 500 | CC12CC(N3CCCCC[C@](O)(C(F)(F)F)c4nnc(o4)-c4nc(c(C(F)(F)F)cc4N)C3=O)(C1)C2 [Compound 122, (6R)-17-Amino-6-hydroxy-12-(3-methyl-1-bicyclo[1.1.1]pentanyl)-6,15-bis (trifluoromethyl)-19-oxa-3,4,12,18-tetrazatricyclo [12.3.1.12,5] nonadeca-1(18),2,4,14,1 6-pentaen-13-one] |
| < 500 | CC(C)(C)C12CC(N3CCCCC[C@](O)(C(F)(F)F)c4nnc(o4)-c4nc(c(C(F)(F)F)cc4N)C3=O)(C1)C2 [Compound 123, (6R)-17-Amino-12-(3-tert-butyl-1-bicyclo[1.1.1]pentanyl)-6-hydroxy-6,15-bis (trifluoromethyl)-19-oxa-3,4,12,18-tetrazatricyclo [12.3.1.12,5] nonadeca-1(18),2,4,14,1 6-pentaen-13-one] |
| < 500 | CC1(C)CCCC[C@](O)(C(F)(F)F)C2=NN=C(O2)c2nc(c(C(F)(F)F)cc2N)C(=O)N(Cc2ccc3c(c2)OC(F)(F)O3)C1 [Compound 124, (6R)-18-amino-13-[(2,2-difluoro-1,3-benzodioxol-5-yl)methyl]-6-hydroxy-11,11-dimethyl-6,16-bis (trifluoromethyl)-20-oxa-3,4,13,19-tetrazatricyclo [13.3.1.12,5]icosa-1(19),2,4,15,1 7-pentaen-14-one] |
| < 500 | Nc1cc(C(F)(F)F)c2nc1-c1nnc(o1)[C@@](O)(C(F)(F)F)CCCCCN(C13CCC(CC1)C3)C2=O [Compound 125, (6R)-17-amino-6-hydroxy-12-norbornan-1-yl-6,15-bis (trifluoromethyl)-19-oxa-3,4,12,18-tetrazatricyclo [12.3.1.12,5] nonadeca-1(18),2,4,14,1 6-pentaen-13-one] |
| < 500 | Cc1ccccc1CN1CCCCC[C@](O)(C(F)(F)F)C2=NN=C(O2)c2nc(c(C(F)(F)F)cc2N)C1=O [Compound 127, (6R)-17-amino-6-hydroxy-12-(0-tolylmethyl)-6,15-bis (trifluoromethyl)-19-oxa-3,4,12,18-tetrazatricyclo [12.3.1.12,5] nonadeca-1(18),2,4,14,1 6-pentaen-13-one] |
| < 500 | CC(C)n1cc(CN2CCCCC[C@](O)(C(F)(F)F)C3=NN=C(O3)c3nc(c(C(F)(F)F)cc3N)C2=O)cn1 [Compound 128, (6R)-17-amino-6-hydroxy-12-[(1-isopropylpyrazol-4-yl)methyl]-6,1-bis (trifluoromethyl)-19-oxa-3,4,12,18-tetrazatricyclo [12.3.1.12,5] nonadeca-1(18),2,4,14,1 6-pentaen-13-one] |
| < 500 | CC(C)n1nccc1CN1CCCCC[C@](O)(C(F)(F)F)C2=NN=C(O2)c2nc(c(C(F)(F)F)cc2N)C1=O [Compound 129, (6R)-17-amino-6-hydroxy-12-[(2-isopropylpyrazol-3-yl)methyl]-6,15-bis (trifluoromethyl)-19-oxa-3,4,12,18-tetrazatricyclo [12.3.1.12,5] nonadeca-1(18),2,4,14,1 6-pentaen-13-one] |
